Assay results: ChEMBL document CHEMBL5725854, “Inhibitors of protein methyltransferase DOT1L and methods of use thereof” (2018)

Target: Histone-lysine N-methyltransferase, H3 lysine-79 specific (Homo sapiens) (UniProt Q8TEK3)
Sequence (Q8TEK3 whole entry, looked up): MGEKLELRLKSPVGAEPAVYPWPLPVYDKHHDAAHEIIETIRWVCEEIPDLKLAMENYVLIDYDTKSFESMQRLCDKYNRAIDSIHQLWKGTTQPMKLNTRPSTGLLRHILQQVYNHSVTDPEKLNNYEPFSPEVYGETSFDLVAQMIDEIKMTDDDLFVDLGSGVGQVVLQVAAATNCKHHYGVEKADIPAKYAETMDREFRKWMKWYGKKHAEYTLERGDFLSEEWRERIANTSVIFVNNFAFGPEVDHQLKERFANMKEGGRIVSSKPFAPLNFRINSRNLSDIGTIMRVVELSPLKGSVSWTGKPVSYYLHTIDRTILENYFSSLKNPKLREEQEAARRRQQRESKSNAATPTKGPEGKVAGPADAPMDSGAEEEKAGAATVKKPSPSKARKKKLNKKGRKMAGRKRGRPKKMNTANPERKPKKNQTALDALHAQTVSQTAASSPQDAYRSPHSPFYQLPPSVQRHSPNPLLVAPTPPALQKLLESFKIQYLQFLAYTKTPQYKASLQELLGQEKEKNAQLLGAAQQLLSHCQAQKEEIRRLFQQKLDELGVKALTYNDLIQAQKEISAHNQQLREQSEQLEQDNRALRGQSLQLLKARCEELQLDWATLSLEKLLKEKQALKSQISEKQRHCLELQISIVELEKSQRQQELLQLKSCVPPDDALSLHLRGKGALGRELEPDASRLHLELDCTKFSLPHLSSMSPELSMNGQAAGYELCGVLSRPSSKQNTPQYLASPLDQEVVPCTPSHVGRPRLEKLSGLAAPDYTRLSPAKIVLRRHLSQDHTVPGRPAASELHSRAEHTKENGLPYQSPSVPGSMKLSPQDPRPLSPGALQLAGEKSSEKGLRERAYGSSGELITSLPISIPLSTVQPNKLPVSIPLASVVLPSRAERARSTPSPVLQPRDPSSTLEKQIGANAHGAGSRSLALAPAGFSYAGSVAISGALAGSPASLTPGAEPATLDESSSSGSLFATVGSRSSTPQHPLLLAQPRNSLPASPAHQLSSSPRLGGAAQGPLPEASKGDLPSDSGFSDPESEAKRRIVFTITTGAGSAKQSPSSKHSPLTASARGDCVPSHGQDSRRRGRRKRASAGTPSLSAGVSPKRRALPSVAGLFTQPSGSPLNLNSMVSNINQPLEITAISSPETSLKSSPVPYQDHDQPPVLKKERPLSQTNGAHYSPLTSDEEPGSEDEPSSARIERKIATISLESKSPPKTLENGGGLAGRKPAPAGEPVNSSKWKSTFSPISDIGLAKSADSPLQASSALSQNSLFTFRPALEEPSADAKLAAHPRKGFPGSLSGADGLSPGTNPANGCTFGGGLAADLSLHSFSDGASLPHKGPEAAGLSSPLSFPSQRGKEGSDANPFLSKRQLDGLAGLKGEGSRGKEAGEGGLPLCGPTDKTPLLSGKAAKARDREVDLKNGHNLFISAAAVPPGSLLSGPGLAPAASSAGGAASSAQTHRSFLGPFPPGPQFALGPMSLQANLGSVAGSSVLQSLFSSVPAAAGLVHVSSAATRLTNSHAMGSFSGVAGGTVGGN

Nc1ncnc2c1ncn2[C@@H]1O[C@H](CSCC[C@H](N)OC=O)[C@@H](O)[C@H]1O
k off: 0.1 s⁻¹
